According to US11142526B2, “Spirocycle compounds and methods of making and using same” (H. Lundbeck A/S, priority 2017, dated 2021):

Target: MAGL (Mus musculus (Mouse), UniProt O35678)
Assay: In vitro competitive activity-based protein profiling, mouse brain proteome
Assay type: biochemical
Details: for inhibition at 1 µM: mouse; for IC50: mouse brain

MAGL, sequence (O35678 whole entry): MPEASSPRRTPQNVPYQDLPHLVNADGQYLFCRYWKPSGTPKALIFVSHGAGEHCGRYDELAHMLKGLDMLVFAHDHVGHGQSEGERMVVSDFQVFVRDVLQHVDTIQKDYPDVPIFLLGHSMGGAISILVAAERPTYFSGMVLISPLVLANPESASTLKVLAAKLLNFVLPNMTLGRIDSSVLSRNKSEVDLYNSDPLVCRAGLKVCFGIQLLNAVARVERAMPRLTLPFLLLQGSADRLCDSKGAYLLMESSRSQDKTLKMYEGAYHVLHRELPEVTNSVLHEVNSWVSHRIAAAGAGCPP

## O=C(OC(C(F)(F)F)C(F)(F)F)N1CCC2(CCCN2C(=O)c2cc3ccccc3o2)CC1 [Example 83, 1,1,1,3,3,3-Hexafluoropropan-2-yl 1-(benzofuran-2-carbonyl)-1,8-diazaspiro[4.5] decane-8-carboxylate]
  inhibition at 1 µM: > 75%
  IC50: < 100 nM

## O=C(OC(C(F)(F)F)C(F)(F)F)N1CCC2(CCCN2Cc2c[nH]c3cccc(Cl)c23)CC1 [Example 45, 1,1,1,3,3,3-Hexafluoropropan-2-yl 1-((4-chloro-1H-indol-3-yl)methyl)-1,8-diazaspiro[4.5] decane-8-carboxylate]
  IC50: 100 to 1000 nM

## Cn1cc(C(=O)N2CCCC23CCN(C(=O)OC(C(F)(F)F)C(F)(F)F)CC3)cn1 [Example 70, 1,1,1,3,3,3-Hexafluoropropan-2-yl 1-(1-methyl-1H-pyrazole-4-carbonyl)-1,8-diazaspiro[4.5] decane-8-carboxylate]
  inhibition at 1 µM: > 75%
  IC50: 100 to 1000 nM

## O=C(OC(C(F)(F)F)C(F)(F)F)N1CCC2(CCCN2Cc2cc3c(Cl)cccc3s2)CC1 [Example 44, 1,1,1,3,3,3-Hexafluoropropan-2-yl 1-((4-chlorobenzo[b]thiophen-2-yl)methyl)-1,8-diazaspiro[4.5] decane-8-carboxylate]
  inhibition at 1 µM: > 75%
  IC50: 100 to 1000 nM

## Cc1cccc2cc(C(=O)N3CCCC34CCN(C(=O)OC(C(F)(F)F)C(F)(F)F)CC4)[nH]c12 [Example 108, 1,1,1,3,3,3-Hexafluoropropan-2-yl 1-(7-methyl-1H-indole-2-carbonyl)-1,8-diazaspiro[4.5] decane-8-carboxylate]
  inhibition at 1 µM: > 75%
  IC50: < 100 nM

## Cc1c(CN(C)C2(C)CCN(C(=O)OC(C(F)(F)F)C(F)(F)F)CC2)sc2ccccc12 [Example 50, 1,1,1,3,3,3-Hexafluoropropan-2-yl 4-methyl-4-(methyl((3-methylbenzo[b]thiophen-2-yl)methyl)amino) piperidine-1-carboxylate]
  inhibition at 1 µM: > 75%
  IC50: 100 to 1000 nM

## O=C(OC(C(F)(F)F)C(F)(F)F)N1CCC2(CCCN2C(=O)c2cc3cc(F)ccc3s2)CC1 [Example 99, 1,1,1,3,3,3-Hexafluoropropan-2-yl 1-(5-fluorobenzo[b]thiophene-2-carbonyl)-1,8-diazaspiro[4.5] decane-8-carboxylate]
  inhibition at 1 µM: > 75%
  IC50: < 100 nM

## O=C(OC(C(F)(F)F)C(F)(F)F)N1CCC2(CCCN2C(=O)c2cc3cc(F)ccc3[nH]2)CC1 [Example 107, 1,1,1,3,3,3-Hexafluoropropan-2-yl 1-(5-fluoro-1H-indole-2-carbonyl)-1,8-diazaspiro[4.5] decane-8-carboxylate]
  inhibition at 1 µM: > 75%
  IC50: < 100 nM

## O=C(OC(C(F)(F)F)C(F)(F)F)N1CCC2(CCN(Cc3ccncn3)C2)CC1 [Example 74, 1,1,1,3,3,3-Hexafluoropropan-2-yl 2-(pyrimidin-4-ylmethyl)-2,8-diazaspiro[4.5] decane-8-carboxylate]
  inhibition at 1 µM: > 75%
  IC50: < 100 nM

## O=C(OC(C(F)(F)F)C(F)(F)F)N1CCC2(CCCN2C(=O)c2cnn(-c3ccccc3)c2)CC1 [Example 72, 1,1,1,3,3,3-Hexafluoropropan-2-yl 1-(1-phenyl-1H-pyrazole-4-carbonyl)-1,8-diazaspiro[4.5] decane-8-carboxylate]
  inhibition at 1 µM: > 75%
  IC50: < 100 nM

## O=C(O)c1ccc2[nH]c(CN3CCCC34CCN(C(=O)OC(C(F)(F)F)C(F)(F)F)CC4)cc2c1 [Example 15, 2-((8-(((1,1,1,3,3,3-Hexafluoropropan-2-yl)oxy)carbonyl)-1,8-diazaspiro[4.5]decan-1-yl)methyl)-1H-indole-5-carboxylic acid]
  inhibition at 1 µM: 25 to 75%

## O=C(OC(C(F)(F)F)C(F)(F)F)N1CCC2(CCCN2Cc2cc(-c3ccc(Cl)cc3)on2)CC1 [Example 47, 1,1,1,3,3,3-Hexafluoropropan-2-yl 1-((5-(4-chlorophenyl)isoxazol-3-yl)methyl)-1,8-diazaspiro[4.5] decane-8-carboxylate]
  inhibition at 1 µM: > 75%
  IC50: < 100 nM

## O=C(OC(C(F)(F)F)C(F)(F)F)N1CCC2(CCCN2C(=O)c2cc3cc(Cl)c(Cl)cc3[nH]2)CC1 [Example 111, 1,1,1,3,3,3-Hexafluoropropan-2-yl 1-(5,6-dichloro-1H-indole-2-carbonyl)-1,8-diazaspiro[4.5] decane-8-carboxylate]
  inhibition at 1 µM: > 75%
  IC50: < 100 nM

## O=C(OC(C(F)(F)F)C(F)(F)F)N1CCC2(CCN(Cc3ncccn3)C2)CC1 [Example 65, 1,1,1,3,3,3-Hexafluoropropan-2-yl 2-(pyrimidin-2-ylmethyl)-2,8-diazaspiro[4.5] decane-8-carboxylate]
  inhibition at 1 µM: > 75%

## Cc1ccc2[nH]c(C(=O)N3CCCC34CCN(C(=O)OC(C(F)(F)F)C(F)(F)F)CC4)cc2c1 [Example 14, 1,1,1,3,3,3-Hexafluoropropan-2-yl 1-(5-methyl-1H-indole-2-carbonyl)-1,8-diazaspiro[4.5]decane-8-carboxylate]
  inhibition at 1 µM: > 75%
  IC50: < 100 nM

## Cc1c(C(=O)N2CCCC23CCN(C(=O)OC(C(F)(F)F)C(F)(F)F)CC3)sc2ccccc12 [Example 94, 1,1,1,3,3,3-Hexafluoropropan-2-yl 1-(3-methylbenzo[b]thiophene-2-carbonyl)-1,8-diazaspiro[4.5] decane-8-carboxylate]
  inhibition at 1 µM: > 75%
  IC50: < 100 nM

## O=C(OC(C(F)(F)F)C(F)(F)F)N1CCC2(CCCN2C(=O)c2cc3ccc(F)cc3s2)CC1 [Example 103, 1,1,1,3,3,3-Hexafluoropropan-2-yl 1-(6-fluorobenzo[b]thiophene-2-carbonyl)-1,8-diazaspiro[4.5] decane-8-carboxylate]
  inhibition at 1 µM: > 75%

## CC(C)(C)c1cc(CN2CCC3(CCN(C(=O)OC(C(F)(F)F)C(F)(F)F)CC3)C2)n(-c2ccccc2Cl)n1 [Example 217, 1,1,1,3,3,3-Hexafluoropropan-2-yl 2-((3-(t-butyl)-1-(2-chlorophenyl)-1H-pyrazol-5-yl)methyl)-2,8-diazaspiro[4.5]decane-8-carboxylate]
  inhibition at 1 µM: > 75%
  IC50: < 100 nM

## O=C(OC(C(F)(F)F)C(F)(F)F)N1CCC2(CCCN2C(=O)c2nc3ccccc3o2)CC1 [Example 84, 1,1,1,3,3,3-Hexafluoropropan-2-yl 1-(benzo[d]oxazole-2-carbonyl)-1,8-diazaspiro[4.5] decane-8-carboxylate]
  inhibition at 1 µM: > 75%
  IC50: < 100 nM

## Cc1c(CN2CCCC23CCN(C(=O)OC(C(F)(F)F)C(F)(F)F)CC3)[nH]c2ccc(Cl)cc12 [Example 48, 1,1,1,3,3,3-Hexafluoropropan-2-yl 1-((5-chloro-3-methyl-1H-indol-2-yl)methyl)-1,8-diazaspiro[4.5] decane-8-carboxylate]
  inhibition at 1 µM: > 75%

## O=C(OC(C(F)(F)F)C(F)(F)F)N1CCC2(CCCN2Cc2cc3cc(Cl)ccc3[nH]2)CC1 [Example 224, 1,1,1,3,3,3-Hexafluoropropan-2-yl 1-((5-chloro-1H-indol-2-yl)methyl)-1,8-diazaspiro[4.5]decane-8-carboxylate]
  inhibition at 1 µM: > 75%
  IC50: < 100 nM

## O=C(OC(C(F)(F)F)C(F)(F)F)N1CCC2(CCN(Cc3nccs3)C2)CC1 [Example 66, 1,1,1,3,3,3-Hexafluoropropan-2-yl 2-(thiazol-2-ylmethyl)-2,8-diazaspiro [4.5]decane-8-carboxylate]
  inhibition at 1 µM: > 75%
  IC50: < 100 nM

## O=C(OC(C(F)(F)F)C(F)(F)F)N1CCC2(CCCN2C(=O)c2cnn(-c3ccc(Cl)cc3)c2)CC1 [Example 78, 1,1,1,3,3,3-Hexafluoropropan-2-yl 1-(1-(4-chlorophenyl)-1H-pyrazole-4-carbonyl)-1,8-diazaspiro[4.5] decane-8-carboxylate]
  inhibition at 1 µM: > 75%
  IC50: < 100 nM

## O=C(OC(C(F)(F)F)C(F)(F)F)N1CCC2(CCCN2Cc2cncs2)CC1 [Example 225, 1,1,1,3,3,3-Hexafluoropropan-2-yl 1-(thiazol-5-ylmethyl)-1,8-diazaspiro [4.5]decane-8-carboxylate]
  inhibition at 1 µM: > 75%

## O=C(OC(C(F)(F)F)C(F)(F)F)N1CCC2(CCN(Cc3ccccn3)C2)CC1 [Example 73, 1,1,1,3,3,3-Hexafluoropropan-2-yl 2-(pyridin-2-ylmethyl)-2,8-diazaspiro [4.5]decane-8-carboxylate]
  inhibition at 1 µM: > 75%
  IC50: 100 to 1000 nM

## CC(C)n1cc(CN2CCCC23CCN(C(=O)OC(C(F)(F)F)C(F)(F)F)CC3)c(-c2cc(Cl)cc(Cl)c2)n1 [Example 220, 1,1,1,3,3,3-Hexafluoropropan-2-yl 1-((3-(3,5-dichlorophenyl)-1-isopropyl-1H-pyrazol-4-yl)methyl)-1,8-diazaspiro[4.5]decane-8-carboxylate]
  inhibition at 1 µM: > 75%

## O=C(OC(C(F)(F)F)C(F)(F)F)N1CCC2(CCCN2C(=O)c2cc3ccccc3s2)CC1 [Example 80, 1,1,1,3,3,3-Hexafluoropropan-2-yl 1-(benzo[b]thiophene-2-carbonyl)-1,8-diazaspiro[4.5] decane-8-carboxylate]
  inhibition at 1 µM: > 75%
  IC50: < 100 nM

## Cc1ccc2cc(C(=O)N3CCCC34CCN(C(=O)OC(C(F)(F)F)C(F)(F)F)CC4)sc2c1 [Example 59, 1,1,1,3,3,3-Hexafluoropropan-2-yl 1-(6-methylbenzo[b]thiophene-2-carbonyl)-1,8-diazaspiro[4.5] decane-8-carboxylate]
  inhibition at 1 µM: > 75%

## O=C(OC(C(F)(F)F)C(F)(F)F)N1CCC2(CCCN2C(=O)c2cc3cccc(C(F)(F)F)c3s2)CC1 [Example 98, 1,1,1,3,3,3-Hexafluoropropan-2-yl 1-(7-(trifluoromethyl)benzo[b]thiophene-2-carbonyl)-1,8-diazaspiro[4.5] decane-8-carboxylate]
  inhibition at 1 µM: > 75%
  IC50: < 100 nM

## O=C(OC(C(F)(F)F)C(F)(F)F)N1CCC2(CCCN2C(=O)c2cc3cc(C(F)(F)F)ccc3[nH]2)CC1 [Example 100, 1,1,1,3,3,3-Hexafluoropropan-2-yl 1-(5-(trifluoromethyl)-1H-indole-2-carbonyl)-1,8-diazaspiro[4.5] decane-8-carboxylate]
  inhibition at 1 µM: > 75%

## O=C(OC(C(F)(F)F)C(F)(F)F)N1CCC2(CCCN2C(=O)c2cc3ccccc3[nH]2)CC1 [Example 76, 1,1,1,3,3,3-Hexafluoropropan-2-yl 1-(1H-indole-2-carbonyl)-1,8-diazaspiro[4.5] decane-8-carboxylate]
  inhibition at 1 µM: > 75%
  IC50: < 100 nM
